Tests used:
HG20 [1] = molecular target: T1, HG20 (Homo sapiens, UniProt O75899)
HG20 [2] = molecular target: T1, HG20; remark: listed apart in the source

T1 sequence (O75899 52-941): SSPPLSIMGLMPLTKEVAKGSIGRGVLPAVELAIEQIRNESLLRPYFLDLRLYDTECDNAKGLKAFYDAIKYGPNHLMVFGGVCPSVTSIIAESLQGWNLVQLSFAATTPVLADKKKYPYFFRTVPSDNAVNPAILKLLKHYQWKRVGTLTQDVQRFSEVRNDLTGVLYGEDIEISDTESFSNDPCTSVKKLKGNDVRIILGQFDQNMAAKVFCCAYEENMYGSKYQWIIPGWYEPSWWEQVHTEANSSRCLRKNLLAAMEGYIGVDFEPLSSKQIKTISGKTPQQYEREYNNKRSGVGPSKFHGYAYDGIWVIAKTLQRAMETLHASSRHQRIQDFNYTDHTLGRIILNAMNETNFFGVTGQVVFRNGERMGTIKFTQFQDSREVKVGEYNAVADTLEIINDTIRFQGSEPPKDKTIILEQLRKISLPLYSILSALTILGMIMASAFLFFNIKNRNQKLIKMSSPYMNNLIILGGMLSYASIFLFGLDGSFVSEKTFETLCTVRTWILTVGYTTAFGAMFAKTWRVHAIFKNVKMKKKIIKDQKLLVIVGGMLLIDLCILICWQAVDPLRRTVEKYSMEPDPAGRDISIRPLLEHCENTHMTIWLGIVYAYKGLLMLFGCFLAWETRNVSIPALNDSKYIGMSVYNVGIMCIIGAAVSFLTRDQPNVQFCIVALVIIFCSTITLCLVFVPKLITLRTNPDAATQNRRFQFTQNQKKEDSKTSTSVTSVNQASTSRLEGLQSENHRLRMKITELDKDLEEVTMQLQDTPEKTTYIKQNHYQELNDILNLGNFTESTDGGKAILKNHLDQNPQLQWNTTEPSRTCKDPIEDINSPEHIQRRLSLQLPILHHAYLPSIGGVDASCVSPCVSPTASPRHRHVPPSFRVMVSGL

| Compound | activity in Xenopus oocyte functional assay (HG20 [1]) | activity in Xenopus melanophore functional assay (HG20 [2]) | pigment aggregation or dispersion response (HG20 [2]) |
| --- | --- | --- | --- |
| N[C@@H](CCC(=O)O)C(=O)O [L-Glutamate, (L)-glutamic acid] | no activity | no activity | no pigment aggregation or dispersion response |
| O=S(=O)(O)C1CCNCC1 [piperidine-4-sulfonic acid] |  |  | no pigment aggregation or dispersion response |
| NC/C=C\C(=O)O [cis-4-aminocrotonic acid] |  |  | no pigment aggregation or dispersion response |
| (−)Baclofen | no activity | no activity | no pigment aggregation or dispersion response |
